Key:
NRK-49F cells [1] = test: Confocal fluorescence imaging of FITC-labeled collagen fibers in NRK-49F cultures (FITC content); type: cell-based, rat; conditions: after TGF-β1 stimulation vs control; FIG. 3 and FIG. 4 (FITC content)
Procedure: (§1) To clearly distinguish the cells from surrounding proteins, the method employs multiple fluorescent proteins for labeling. In this embodiment, rat renal fibroblasts (NRK-49F cells) were transfected to express Lifeact-RFP and cultured on collagen gels conjugated with FITC-labeled type-I collagen. The cultures were divided into a group treated with TGF-β1 and a control group without TGF-β1. TGF-β1 was added to mimic the activation of fibroblasts into myofibroblasts in fibrotic conditions such as kidney fibrosis and keloid, enabling subsequent analysis of cell contraction and collagen fiber interactions.
(§2) In this embodiment, the coaxial microscope system combines a laser-scanning confocal microscope (FV3000, Olympus) with sharp tip probe-equipped atomic-force microscope (BioScope Resolve, Bruker) […]. Before measurement, the spring constant, deflection sensitivity, and position of the probe were calibrated using No-Touch mode in AFM and vision in confocal microscopy.
FIG. 2 schematically illustrates a simplified experimental workflow for selecting the regions of interest and examining the sample using a coaxial microscope system of the laser scanning confocal microscope and the atomic force microscope. […] Finally, the fluorescence and morphological images are merged, and the mechanical properties of the cells and collagen fibers are analyzed using software

NRK-49F cells [2] = test: Atomic force microscope measurement of stiffness and morphology of NRK-49F cells and collagen fibers in the in vitro fibrosis model (coaxial AFM/confocal system); type: cell-based, rat
Procedure: as §1, §2
Additionally, prior to measurement, a hydrophobic material is coated onto the sharp tip probe of the atomic force microscope. This prevents the probe from adhering to collagen fibers during scanning of the sample, thereby maintaining measurement accuracy.
After calibration, the regions of interest can be selected, captured, and measured using the coaxial microscope system. The elastic moduli are calculated from force-distance curves using a modified Sneddon model implemented in Bruker data-analysis software. Collagen fibers and cells are further analyzed for morphology and rigidity using NanoScope Analysis software (v1.9, Bruker).
FIG. 2 schematically illustrates a simplified experimental workflow for selecting the regions of interest and examining the sample using a coaxial microscope system of the laser scanning confocal microscope and the atomic force microscope. FITC-labeled collagen gels are prepared and seeded with Lifeact-RFP-transfected NRK-49F cells. After 24 hours of culture, drugs are added and media are refreshed. The prepared sample is mounted on the coaxial microscope system, the scan area is marked, and the sample is adjusted to the pre-marked area. Subsequently, images are acquired using the coaxial confocal microscope and atomic force microscope. Finally, the fluorescence and morphological images are merged, and the mechanical properties of the cells and collagen fibers are analyzed using software

[3] = after TGF-β1 treatment vs control, AFM images, figure not shown

With transforming growth factor β1 [TGF-β1] the “density of collagen fibers” value (NRK-49F cells [1]) was “markedly increased”, the “increase in stiffness of collagen fibers” value (NRK-49F cells [2]; TGF-β1-treated vs control without TGF-β1, FITC-labeled type-I collagen gel seeded with Lifeact-RFP NRK-49F cells, AFM elastic modulus, FIG. 6) was “approximately 6.5 fold” and the “increase in stiffness of NRK-49F cells” value (NRK-49F cells [2]; TGF-β1-treated vs control without TGF-β1, Lifeact-RFP NRK-49F cells on collagen gel, AFM elastic modulus, FIG. 6) was ~6.7 fold. For the same substance, the “angle between collagen fibers and NRK-49F cells (A)” value (NRK-49F cells [2]; [3]) was “no significant difference” and the “diameter of collagen fibers (D1)” value (NRK-49F cells [2]; [3]) was “no significant difference”.

From patent publication US20260287509A1, “METHOD FOR MEASURING CELLULAR MECHANICS IN AN IN VITRO FIBROSIS MODEL” (National Cheng Kung University, priority 2023, published 2026)
